pIC50: −log10 of the molar value.
Columns and labels:
[1] = molecular target: T1, PLK1 (Homo sapiens, UniProt P53350); experiment: Luciferase assay for PLK1 in HeLa LgBit (Plk1-HiBit KI) cell line; type: cell-based; details: 300 nM compound, luminescence after 9 hours
T1 construct: endogenous in cells; host or cells: HeLa cells stably expressing LgBit, with CRISPR/Cas9 knock-in of HiBit at the endogenous PLK1 locus
Description: 2. Luciferase Assay for PLK1
(1) Preparation and Culture of HeLa LgBit (Plk1-HiBit KI) Cell Line
A HeLa cell line in which the LgBit vector was transfected and expressed stably was prepared. Then, after constructing gRNA and donor to express the HiBit amino acid sequence behind the C-terminal of the Plk1 gene, which was inherent in the cell, it was inserted into the cell together with a vector capable of expressing CRISPR/Cas9. Only the cells in which the insertion was completed and knock-in had progressed were selected, sub-cultured and used.
(2) Treatment of Compounds of the Present Invention and Method of Luciferase Assay
In the case of HeLa LgBit (Plk1-HiBit KI), the compounds were treated after being released after thymidine block, and the process was as follows. Thymidine (Sigma-Aldrich Cat. No. T9250-5G) was completely dissolved in DW and used in the experiment. For thymidine block, the products were treated with 2 mM of thymidine and then incubated for 24 hours. For release and chemical treatment, the medium was suctioned and washed with 1×PBS. TrypLE™ was added and incubated in 37° C. CO2 incubator for 5 min. Cells neutralized by adding complete media were counted through a counter. For each well of a 96-well culture plate (SPL), 3.3×10^4 cells and a total medium volume of 150 μL were seeded and incubated in a CO2 incubator.
Each cell line was incubated in a CO2 incubator for 18 hours, and Endurazine was added to each well to make up 4% of the total volume. After adding the compound of the present invention in a 96-well white plate (SPL) to a concentration of 300 nM, the wavelength of the plate reader (BMG Labtech, CLARIOstar Plus) was set to […], and then the luminescence was tracked in real time.
The results are shown in Table 2 below and FIGS. 1 and 2.
In Table 2, Activity represents the ratio of the luminescence value of each Exemplary Compound treatment group to DMSO treatment group (+++: <0.3, ++ <0.6, + <0.7).

[2] = tested on: H526 cell line; experiment: Cell viability assay for H526 cell line; type: cell-based; details: Homo sapiens, NCI-H526, 120 h; H526 cells, 5 days, EZ-Cytox, 0.46-3000 nM
Description: 3. Cell Viability Assay for H526 Cell Line
(1) Culture of NCI-H526 Cell Line
(2) Treatment of Compounds of the Present Invention and Method of Cell Viability Assay
After treating the compound to each well to make the total volume of 200 μL, it was cultured in a CO2 incubator (Thermo Fisher Science, Cat. No. 4111) for 5 days.
The absorbance of the completely cultured sample was measured by setting the wavelength of a plate reader (BMG Labtech, CLARIOstar Plus) to […], and was measured after shaking for 3 minutes in a plate reader before measurement.
In Table 3, Activity represents IC50 value of each Exemplary Compound treatment group to H526 cell line (A: <30 nM, B: <50 nM, C: <100 nM, D: <200 nM, E: <400 nM).

[3] = Cell viability assay for MRC-5 cell line; details: human
Description: Cell Viability Assay for MRC-5 Cell Line
(1) Culture of MRC-5 Cell Line
The MRC-5 cell line was purchased from Korea Cell Line Bank (KCLB), Seoul, Korea. Passage of cultured cells was maintained within P15.
6×10^3 cells were seeded for each well of a 96-well plate (SPL), and the cells were cultured in total volume of 150 μL.
Each well was mixed with a medium and treated, and the volume was set to 50 μL, so that the total volume of each well was 200 μL. Then, it was cultured in 37° C.
The following compounds were used as comparative examples, and the cell viability assay was performed in the same manner as in the compounds of Examples.
(3) Cytotoxicity Experiment
After treating EZ-Cytox (DOGEN, Cat. NO. EZ-3000, Lot. No. DLS2112) 20 μL in each well of completely cultured plate, it was cultured in 37° C. CO2 incubator for 4 hours. […] The data were converted into graphs using the Prism (ver. 9) program.

T1 sequence (P53350 whole entry): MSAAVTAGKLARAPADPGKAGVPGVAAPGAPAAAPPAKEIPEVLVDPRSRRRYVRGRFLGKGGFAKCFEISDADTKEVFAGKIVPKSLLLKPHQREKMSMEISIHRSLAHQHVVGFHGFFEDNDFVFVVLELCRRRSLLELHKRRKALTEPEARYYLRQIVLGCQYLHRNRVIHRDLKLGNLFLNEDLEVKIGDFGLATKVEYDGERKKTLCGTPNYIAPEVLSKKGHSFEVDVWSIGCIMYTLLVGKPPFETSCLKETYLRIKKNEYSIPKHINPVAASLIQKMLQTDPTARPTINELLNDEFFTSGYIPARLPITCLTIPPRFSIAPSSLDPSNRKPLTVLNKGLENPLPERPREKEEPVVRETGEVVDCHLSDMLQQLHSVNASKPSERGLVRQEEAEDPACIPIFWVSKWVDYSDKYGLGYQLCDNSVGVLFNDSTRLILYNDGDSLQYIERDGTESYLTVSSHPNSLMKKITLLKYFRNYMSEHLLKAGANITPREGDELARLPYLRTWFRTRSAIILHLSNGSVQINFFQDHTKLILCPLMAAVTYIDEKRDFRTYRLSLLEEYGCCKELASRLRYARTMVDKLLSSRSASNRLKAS

Structure (SMILES)	Activity: ratio of the luminescence value of each Exemplary Compound treatment group to DMSO treatment group [1]	pIC50 [2]	IC50 at 5 days ([3]; MRC-5 cells (normal cell line)) [µM]	IC50 at 5 days [3] [µM]
COc1cc(C(=O)NC2CCN(C(=O)CCN3CCN(c4cccc(C5CCC(=O)NC5=O)c4)CC3)CC2)ccc1Nc1ncc2c(n1)N(C(C)C)CC1(CC1)C(=O)N2C (stereo not drawn) [Compound 5, N-(1-(3-(4-(3-(2,6-dioxopiperidin-3-yl)phenyl)piperazin-1-yl)propanoyl)piperidin-4-yl)-4-((9′-isopropyl-5′-methyl-6′-oxo-5′,6′,8′,9′-tetrahydrospiro[cyclopropane-1,7′-pyrimido[4,5-b][1,4]diazepin]-2′-yl)amino)-3-methoxybenzamide]	++ (++ <0.6)	> 6.70	> 10	–
COc1cc(C(=O)NN2CCC(CN3CCN(c4ccc(C5CCC(=O)NC5=O)cc4F)CC3)C(F)(F)C2)ccc1Nc1ncc2c(n1)N(C(C)C)CC(F)(F)C(=O)N2C (stereo not drawn) [Compound 16, 4-((7,7-difluoro-9-isopropyl-5-methyl-6-oxo-6,7,8,9-tetrahydro-5H-pyrimido[4,5-b][1,4]diazepin-2-yl)amino)-N-(4-((4-(4-(2,6-dioxopiperidin-3-yl)-2-fluorophenyl)piperazin-1-yl)methyl)-3,3-difluoropiperidin-1-yl)-3-methoxybenzamide]	++ (++ <0.6)	> 7.00	> 10	–
COc1cc(C(=O)NN2CC3(CCN(CC4CCN(c5ccc(C6CCC(=O)NC6=O)cc5F)CC4)CC3)C2)ccc1Nc1ncc2c(n1)N(C(C)C)CC(F)(F)C(=O)N2C (stereo not drawn) [Compound 23, 4-((7,7-difluoro-9-isopropyl-5-methyl-6-oxo-6,7,8,9-tetrahydro-5H-pyrimido[4,5-b][1,4]diazepin-2-yl)amino)-N-(7-((1-(4-(2,6-dioxopiperidin-3-yl)-2-fluorophenyl)piperidin-4-yl)methyl)-2,7-diazaspiro[3.5]nonan-2-yl)-3-methoxybenzamide]	+++ (+++: <0.3)	> 7.52	> 10	–
COc1cc(C(=O)NN2CC(F)(F)CC2CCN2CCN(c3ccc(C4CCC(=O)NC4=O)cc3F)CC2)ccc1Nc1ncc2c(n1)N(C(C)C)CC(F)(F)C(=O)N2C (stereo not drawn) [Compound 17, 4-((7,7-difluoro-9-isopropyl-5-methyl-6-oxo-6,7,8,9-tetrahydro-5H-pyrimido[4,5-b][1,4]diazepin-2-yl)amino)-N-(2-(2-(4-(4-(2,6-dioxopiperidin-3-yl)-2-fluorophenyl)piperazin-1-yl)ethyl)-4,4-difluoropyrrolidin-1-yl)-3-methoxybenzamide]	++ (++ <0.6)	> 7.30	> 10	–
COc1cc(C(=O)OC2CC3(CCN(CC4CCN(c5ccc(C6CCC(=O)NC6=O)cc5F)CC4)CC3)C2)ccc1Nc1ncc2c(n1)N(C(C)C)CC(F)(F)C(=O)N2C (stereo not drawn) [Compound 25, 7-((1-(4-(2,6-dioxopiperidin-3-yl)-2-fluorophenyl)piperidin-4-yl)methyl)-7-azaspiro[3.5]nonan-2-yl 4-((7,7-difluoro-9-isopropyl-5-methyl-6-oxo-6,7,8,9-tetrahydro-5H-pyrimido[4,5-b][1,4]diazepin-2-yl)amino)-3-methoxybenzoate]	++ (++ <0.6)	> 6.70	–	> 10
COc1cc(C(=O)NN2CCC(CN3CCC4(CC3)CN(c3ccc(C5CCC(=O)NC5=O)cc3F)C4)CC2)ccc1Nc1ncc2c(n1)N(C(C)C)CC(F)(F)C(=O)N2C (stereo not drawn) [Compound 42, 4-((7,7-difluoro-9-isopropyl-5-methyl-6-oxo-6,7,8,9-tetrahydro-5H-pyrimido[4,5-b][1,4]diazepin-2-yl)amino)-N-(4-((2-(4-(2,6-dioxopiperidin-3-yl)-2-fluorophenyl)-2,7-diazaspiro[3.5]nonan-7-yl)methyl)piperidin-1-yl)-3-methoxybenzamide]	++ (++ <0.6)	> 7.52	> 10	–
COc1cc(C(=O)NC2CC(N(C)CC3CCN(c4ccc(C5CCC(=O)NC5=O)cc4F)CC3)C2)ccc1Nc1ncc2c(n1)N(C(C)C)CC(F)(F)C(=O)N2C (stereo not drawn) [Compound 44, 4-((7,7-difluoro-9-isopropyl-5-methyl-6-oxo-6,7,8,9-tetrahydro-5H-pyrimido[4,5-b][1,4]diazepin-2-yl)amino)-N-(3-(((1-(4-(2,6-dioxopiperidin-3-yl)-2-fluorophenyl)piperidin-4-yl)methyl)(methyl)amino)cyclobutyl)-3-methoxybenzamide]	+++ (+++: <0.3)	> 7.52	> 10	–
COc1cc(C(=O)NN2CCN(C3CCN(c4ccc(C5CCC(=O)NC5=O)cc4F)C3)CC2)ccc1Nc1ncc2c(n1)N(C(C)C)CC(F)(F)C(=O)N2C (stereo not drawn) [Compound 38, 4-((7,7-difluoro-9-isopropyl-5-methyl-6-oxo-6,7,8,9-tetrahydro-5H-pyrimido[4,5-b][1,4]diazepin-2-yl)amino)-N-(4-(1-(4-(2,6-dioxopiperidin-3-yl)-2-fluorophenyl)pyrrolidin-3-yl)piperazin-1-yl)-3-methoxybenzamide]	+++ (+++: <0.3)	> 7.30	> 10	–
COc1cc(C(=O)NC2CC3(CCN(CC4CCN(c5ccc(C6CCC(=O)NC6=O)cc5C)CC4)CC3)C2)ccc1Nc1ncc2c(n1)N(C(C)C)CC(F)(F)C(=O)N2C (stereo not drawn) [Compound 35, 4-((7,7-difluoro-9-isopropyl-5-methyl-6-oxo-6,7,8,9-tetrahydro-5H-pyrimido[4,5-b][1,4]diazepin-2-yl)amino)-N-(7-((1-(4-(2,6-dioxopiperidin-3-yl)-2-methylphenyl)piperidin-4-yl)methyl)-7-azaspiro[3.5]nonan-2-yl)-3-methoxybenzamide]	++ (++ <0.6)	> 7.52	–	> 10
COc1cc(C(=O)NC2CC3(CCN(CC4CCN(c5ccc(C6CCC(=O)NC6=O)cc5F)CC4)CC3)C2)ccc1Nc1ncc2c(n1)N(C(C)C)CC(F)(F)C(=O)N2C (stereo not drawn) [Compound 13, 4-((7,7-difluoro-9-isopropyl-5-methyl-6-oxo-6,7,8,9-tetrahydro-5H-pyrimido[4,5-b][1,4]diazepin-2-yl)amino)-N-(7-((1-(4-(2,6-dioxopiperidin-3-yl)-2-fluorophenyl)piperidin-4-yl)methyl)-7-azaspiro[3.5]nonan-2-yl)-3-methoxybenzamide]	++ (++ <0.6)	> 7.52	–	> 10
COc1cc(C(=O)NC2CC3(CCN(CC4CCN(c5ccc(C6CCC(=O)NC6=O)cc5OC)CC4)CC3)C2)ccc1Nc1ncc2c(n1)N(C(C)C)CC(F)(F)C(=O)N2C (stereo not drawn) [Compound 36, 4-((7,7-difluoro-9-isopropyl-5-methyl-6-oxo-6,7,8,9-tetrahydro-5H-pyrimido[4,5-b][1,4]diazepin-2-yl)amino)-N-(7-((1-(4-(2,6-dioxopiperidin-3-yl)-2-methoxyphenyl)piperidin-4-yl)methyl)-7-azaspiro[3.5]nonan-2-yl)-3-methoxybenzamide]	++ (++ <0.6)	> 7.52	–	> 10
COc1cc(C(=O)NC2CCN(C(=O)CCN3CCN(c4ccc(C5CCC(=O)NC5=O)cc4)CC3)CC2)ccc1Nc1ncc2c(n1)N(C(C)C)CC1(CC1)C(=O)N2C (stereo not drawn) [Compound 3, N-(1-(3-(4-(4-(2,6-dioxopiperidin-3-yl)phenyl)piperazin-1-yl)propanoyl)piperidin-4-yl)-4-((9′-isopropyl-5′-methyl-6′-oxo-5′,6′,8′,9′-tetrahydrospiro[cyclopropane-1,7′-pyrimido[4,5-b][1,4]diazepin]-2′-yl)amino)-3-methoxybenzamide]	++ (++ <0.6)	> 7.00	> 10	–

Source: patent US11939334B2, “Substituted pyrimido[4,5-b][1,4]diazepines as PLK1 degradation inducers” (UPPTHERA, INC., priority 2021, dated 2024)
